Earlier results as cited in patent US20230000758A1, “METHOD FOR PREVENTING SKIN AGING COMPRISING KOREAN MINT EXTRACT” (COSMAX NBT, INC., priority 2021, published 2023).

Test system: catalase
Details: lipopolysaccharide-stimulated mouse lung tissues

Structure (SMILES): COc1ccc(-c2cc(=O)c3c(O)cc(O[C@@H]4O[C@H](CO[C@@H]5O[C@@H](C)[C@H](O)[C@@H](O)[C@H]5O)[C@@H](O)[C@H](O)[C@H]4O)cc3o2)cc1 [linarin]
- expression of the anti-oxidant enzyme catalase: markedly increased
